Results as given in patent US11510964B2, “Macrocyclic peptides to decrease c-Myc protein levels and reduce cancer cell growth” (University of Kansas, priority 2017, dated 2022).
“Also recorded” adds a separate entry of the source. Non-standard residues stand in square brackets, D forms with d. Residues, ends and D or L forms follow the SMILES beside them.

How the values were obtained:
[1] = cited from earlier work
[2] = test system: c-Myc protein levels in PC-3 cells; test: Western blot analysis of cellular c-Myc protein levels; type: cell-based, human
Protocol: Cells were seeded in 6 well plates at a density of 1×10^5 cells/well and grown to 75% confluence. Cells were treated with [D-Trp]CJ-15,208 at the indicated concentrations. Cells were then harvested as described above, and the cell pellets lysed in RIPA buffer consisting of 10 mM Tris HCl, pH 8.0, 150 mM NaCl, 1 mM EDTA, 1% Triton-X-100, 0.1% SDS, 1% sodium deoxycholate, and a protease inhibitor cocktail #P8340 (Sigma). Cell lysates were centrifuged at 13×1000 rpm for 15 min and the supernatants collected. The total protein concentration was measured in cell lysates using the standard Bradford assay. SDS gel electrophoresis was performed using 4-20% polyacrylamide gel (BioRad). Western blot analysis was performed using the following antibodies: i) c-Myc #5605 (rabbit monoclonal, 1:2000 dilution, (Cell Signaling Technologies)); actin #A2228 (mouse monoclonal, 1:5000 dilution (Sigma)), PP2A #610555 (mouse monoclonal 1:5000 dilution, BD Biosciences), p-PP2A #1155-1 (rabbit polyclonal, 1:5000 dilution (Epitomics)), Erk #9107 (mouse monoclonal, 1:2000 dilution (Cell Signaling Technologies) and p-Erk #4376 (rabbit monoclonal, 1:2000 (Cell Signaling Technologies)); Akt #2920 (mouse monoclonal, 1:2000 dilution (Cell Signaling Technologies)), p-Akt #4056 (rabbit monoclonal, 1:2000 (Cell Signaling Technologies)). The secondary antibodies, goat-anti-mouse #116-035-003 and goat-anti-rabbit #111-035-003, were obtained from Jackson ImmunoResearch Laboratory. Signal densities of the protein bands were determined using ImageJ software (NIH) and normalized to the internal loading control (actin).

PP2A in PC-3 cells = test: Western blot of p-PP2A/total PP2A protein levels; type: cell-based, human
Protocol: (§1) Cells were seeded in 6 well plates at a density of 1×10^5 cells/well and grown to 75% confluence. Cells were treated with [D-Trp]CJ-15,208 at the indicated concentrations. Cells were then harvested as described above, and the cell pellets lysed in RIPA buffer consisting of 10 mM Tris HCl, pH 8.0, 150 mM NaCl, 1 mM EDTA, 1% Triton-X-100, 0.1% SDS, 1% sodium deoxycholate, and a protease inhibitor cocktail #P8340 (Sigma). Cell lysates were centrifuged at 13×1000 rpm for 15 min and the supernatants collected. The total protein concentration was measured in cell lysates using the standard Bradford assay. SDS gel electrophoresis was performed using 4-20% polyacrylamide gel (BioRad). […] Signal densities of the protein bands were determined using ImageJ software (NIH) and normalized to the internal loading control (actin).
(§2) Each experiment was performed in triplicate unless otherwise stated in the figure legend. […] The effects of compound vs. vehicle treatment on protein levels (FIG. 10) were evaluated by one-way ANOVA with Dunnett's test for multiple comparisons.

c-Myc mRNA in PC-3 cells = test: c-Myc mRNA measurement (real-time PCR); type: cell-based, human; conditions: 10 μM, 0 h to 48 h
Protocol: PC-3 cells were grown in 10 cm petri dishes to 75% confluency, and then treated with [D-Trp] CJ-15,208 (10 μM) for 2-48 h. Cells were harvested and the total RNA from each sample was isolated using the Aurum Total RNA Mini Kit #732-6820 (Bio-Rad) per the manufacturer's instructions. The RNA concentration in the sample was determined using a NanoDrop ND-1000 spectrophotometer. Total RNA (1 μg) from each sample was used to synthesize cDNA using the iScript cDNA Synthesis Kit (BioRad). Real-time PCR was performed with a Power-SYBR Green PCR Master Mix (Applied Biosystems) using the following thermal cycles: initial activation at 95° C. for 5 min, followed by 40 cycles of 95° C. for 15 s and 60° C. for 1 min. The fluorescence was determined at the melting temperature of the product for 20 s (ABI PRISM 7000 Sequence Detection System, Applied Biosystems). The following primer sets were used to amplify regions of c-Myc and GAPDH (internal control): c-Myc (forward: 5′-CTG GTG CTC CAT GAG GAG-3′ (SEQ ID NO: 1), reverse: 5′-AGG TGA TCC AGA CTC TGA C-3′ SEQ ID NO: 2)) and GAPDH (forward: 5′-CCA TGG AGA AGG CTG GGG-3′ (SEQ ID NO: 3), reverse: 5′-CAAATGTGTCATGGATGACC-3′ SEQ ID NO: 4)). The levels of c-Myc mRNA were normalized to the GAPDH mRNA levels.^37

22Rv1 cells = test: Cell viability assay (Trypan Blue); type: cell-based, human; conditions: 48 h and 72 h
Protocol: (§3) The viability of prostate cancer cells was determined using Trypan Blue (Sigma) per the manufacturer's instructions. Cells were grown in 6 well plates to a density of 1×10^5 cells/well to 75% confluency and treated with compound in 0.5% DMSO at the indicated concentrations for 24-72 h, with 0.5% DMSO as the vehicle control. After treatment, the cell media from each well was collected. The cells were washed with phosphate buffer saline (PBS), trypsinized, and collected. All of the cells, combined media, and washes were centrifuged at 250×g for 5 min. The supernatant was discarded, and the cell pellet was resuspended in 500 μL PBS. Trypan blue (10 μL) was added to 100 μL of resuspended cells, and the solution incubated for 10 min. The cell number in 10 μL was then counted using a hematocytometer. Viable cells (not stained) were distinguished from dead cells (colored blue) and the % viable cells calculated as follows: [(number of white cells)/(number of total cells (white+blue))]*100 and compared with untreated cells.^16

PC-3 cells = test: Cell viability assay (Trypan Blue); type: cell-based, human; conditions: 48 h and 72 h
Protocol: as §3

LNCaP cells = test: Cell viability assay (Trypan Blue); type: cell-based, human; conditions: 48 h and 72 h
Protocol: as §3

Akt in PC-3 cells = test: Western blot of p-Akt/total Akt protein levels; type: cell-based, human; conditions: 48 h
Protocol: as §1, §2

Compound: O=C1N[C@H](Cc2c[nH]c3ccccc23)C(=O)N[C@@H](Cc2ccccc2)C(=O)N2CCC[C@@H]2C(=O)N[C@H]1Cc1ccccc1 [[D-Trp]CJ-15,208, cyclo[Phe-D-Pro-Phe-D-Trp]] (cyclo(F[dP]F[dW]))
- activity after oral administration [1]: active after oral administration
- decrease of cellular c-Myc protein levels ([2]; 50 μM (FIG. 1E lanes 4 and 5)): 5 fold
- reduction of c-Myc protein levels ([2]; PC-3 cells, 10 μM, 48 h): approximately 50%
- total PP2A protein levels (PP2A in PC-3 cells; PC-3, 48 h, vs. vehicle treated cells): not significantly different
- p-PP2A levels (PP2A in PC-3 cells; PC-3, concentrations ≥10 μM, 48 h): significantly reduced
- c-Myc mRNA expression (c-Myc mRNA in PC-3 cells): did not affect mRNA expression; also recorded: did not alter cmyc mRNA levels
- cell death (Trypan blue) (22Rv1 cells): resulted in cell death
- cell death (Trypan blue) (PC-3 cells): resulted in cell death
- cell death (Trypan blue) (LNCaP cells): resulted in cell death
- total Akt protein levels (Akt in PC-3 cells; PC-3, highest concentration (50 μM)): significant decrease
- cellular levels of p-Akt (Akt in PC-3 cells; PC-3, increasing concentrations): did not change significantly
